Reference: BindingDB's records for patent US10174013 (Selvita S.A., 2019)

Experiments:
[1] = biological target: Potassium voltage-gated channel subfamily H member 2 (Homo sapiens, UniProt Q12809); assay: Determination of a Possible Activity on hERG
Description: In order to establish whether the compounds of the present invention act on hERG, the following experiment was carried out.The in vitro effects of the compounds indicated in Table 5 on the hERG potassium channel current (a surrogate for Iκr, the rapidly activating, delayed rectifier cardiac potassium current) expressed in mammalian cells were evaluated at room temperature using the QPatch HT (Sophion Bioscience A/S, Denmark), an automatic parallel patch clamp system. Each compound indicated in Table 5 was evaluated at 0.1, 1, 3, 10 and 30 μM with each concentration tested in a minimum of two cells (n≥2). The duration of exposure to each compound concentration was 3 minutes.

[2] = biological target: Receptor-type tyrosine-protein kinase FLT3 [D835Y] (Homo sapiens, UniProt P36888, D835Y); assay: FLT3 Kinase assay
Description: (§1) Selected compounds were also tested for their binding properties against FLT3 kinase mutants using suitable in vitro assays (performed according to standard assays at DiscoveRx Corporation). The compounds show strong binding to the main oncogenic mutants of the FLT3 kinase.

[3] = biological target: Receptor-type tyrosine-protein kinase FLT3 (Homo sapiens, UniProt P36888); assay: FLT3 Kinase assay
Description: as §1

[4] = biological target: Receptor-type tyrosine-protein kinase FLT3 [D835H] (Homo sapiens, UniProt P36888, D835H); assay: FLT3 Kinase assay
Description: as §1

Chain of Potassium voltage-gated channel subfamily H member 2 (Q12809 whole entry): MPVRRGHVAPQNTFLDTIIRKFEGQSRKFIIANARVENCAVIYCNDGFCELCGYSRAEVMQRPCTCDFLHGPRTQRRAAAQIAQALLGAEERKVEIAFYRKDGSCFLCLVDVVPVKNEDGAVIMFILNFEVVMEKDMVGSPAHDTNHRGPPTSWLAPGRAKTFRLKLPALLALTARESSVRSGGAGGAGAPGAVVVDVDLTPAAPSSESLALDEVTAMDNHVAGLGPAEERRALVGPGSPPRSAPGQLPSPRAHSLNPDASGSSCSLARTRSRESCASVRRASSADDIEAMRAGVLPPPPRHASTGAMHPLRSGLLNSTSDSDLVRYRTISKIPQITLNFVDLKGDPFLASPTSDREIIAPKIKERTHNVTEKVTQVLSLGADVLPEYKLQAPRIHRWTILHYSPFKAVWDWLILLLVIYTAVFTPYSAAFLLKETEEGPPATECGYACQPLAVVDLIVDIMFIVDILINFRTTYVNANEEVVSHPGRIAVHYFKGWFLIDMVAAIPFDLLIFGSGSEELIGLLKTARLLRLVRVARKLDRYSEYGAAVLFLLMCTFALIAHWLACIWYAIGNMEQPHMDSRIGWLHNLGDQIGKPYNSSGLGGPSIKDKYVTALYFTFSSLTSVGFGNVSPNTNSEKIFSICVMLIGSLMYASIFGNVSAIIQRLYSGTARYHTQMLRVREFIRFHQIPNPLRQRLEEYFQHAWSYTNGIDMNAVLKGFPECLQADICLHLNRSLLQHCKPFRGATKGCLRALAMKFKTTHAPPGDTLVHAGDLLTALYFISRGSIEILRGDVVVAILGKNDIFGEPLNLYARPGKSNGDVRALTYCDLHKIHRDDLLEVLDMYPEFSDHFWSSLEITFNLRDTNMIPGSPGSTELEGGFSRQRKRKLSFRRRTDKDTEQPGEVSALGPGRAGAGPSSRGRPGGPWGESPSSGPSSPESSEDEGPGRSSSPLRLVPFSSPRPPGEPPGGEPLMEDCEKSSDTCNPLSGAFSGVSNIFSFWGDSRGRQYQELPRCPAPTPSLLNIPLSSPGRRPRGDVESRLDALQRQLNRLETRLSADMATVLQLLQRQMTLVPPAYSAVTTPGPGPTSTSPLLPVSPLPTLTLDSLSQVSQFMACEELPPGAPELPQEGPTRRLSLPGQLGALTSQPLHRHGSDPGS

Kd [2] [nM]	Kd [3] [nM]	Kd [4] [nM]	Structure (SMILES)	IC50 [1] [nM]
			CCn1c(N2CCNCC2)nc2c([N+](=O)[O-])c(Br)c(Br)cc21 [US10174013, Example 1A]	20400
15	130	28	CC(C)n1c(N2CCNCC2)nc2c([N+](=O)[O-])c(Br)c(Br)cc21 [US10174013, Example 2A]	
